# Laboratory results as given in patent publication US9422267B2, “Fused pyrimidine compounds and use thereof” (Medivation Technologies, Inc., priority 2012, dated 2016).
# Assays:
# Assay type in all cases: biochemical
# INSR = target: T1, INSR (Homo sapiens, UniProt P06213); assay: Caliper kinase profiling: INSR; conditions: for inhibition at 0.01 µM: 10 nM, read-out: Average % Inh @ 10 nM
# T1 construct: purchased Caliper LifeSciences (ProfilerPro Kinase Selectivity Assay Kits)
# Description: The compound was tested at concentrations of 1.0×10^−8 and 1.0×10^−9 M in the RapidKinase192™ panel in duplicate. […] The screening was performed using the Caliper EZReader2, a 4-sipper LabChip, and ProfilerPro Kinase Selectivity Assay Kits 1 and 2. The assay measures the conversion of a fluorescent peptide substrate to a phosphorylated product. Briefly, the reaction mixture was introduced through a capillary sipper onto the microfluidic chip, where the substrate and product were electrophoretically separated and detected by laser-induced fluorescence. The time-dependent fluorescence signal indicates the extent of the reaction.
# Mer = target: T2, Mer (Homo sapiens, UniProt Q12866); assay: Caliper kinase profiling: Mer; conditions: for inhibition at 0.01 µM: 10 nM, read-out: Average % Inh @ 10 nM
# T2 construct: purchased Caliper LifeSciences (ProfilerPro Kinase Selectivity Assay Kits)
# T2 sequence (Q12866 21-999): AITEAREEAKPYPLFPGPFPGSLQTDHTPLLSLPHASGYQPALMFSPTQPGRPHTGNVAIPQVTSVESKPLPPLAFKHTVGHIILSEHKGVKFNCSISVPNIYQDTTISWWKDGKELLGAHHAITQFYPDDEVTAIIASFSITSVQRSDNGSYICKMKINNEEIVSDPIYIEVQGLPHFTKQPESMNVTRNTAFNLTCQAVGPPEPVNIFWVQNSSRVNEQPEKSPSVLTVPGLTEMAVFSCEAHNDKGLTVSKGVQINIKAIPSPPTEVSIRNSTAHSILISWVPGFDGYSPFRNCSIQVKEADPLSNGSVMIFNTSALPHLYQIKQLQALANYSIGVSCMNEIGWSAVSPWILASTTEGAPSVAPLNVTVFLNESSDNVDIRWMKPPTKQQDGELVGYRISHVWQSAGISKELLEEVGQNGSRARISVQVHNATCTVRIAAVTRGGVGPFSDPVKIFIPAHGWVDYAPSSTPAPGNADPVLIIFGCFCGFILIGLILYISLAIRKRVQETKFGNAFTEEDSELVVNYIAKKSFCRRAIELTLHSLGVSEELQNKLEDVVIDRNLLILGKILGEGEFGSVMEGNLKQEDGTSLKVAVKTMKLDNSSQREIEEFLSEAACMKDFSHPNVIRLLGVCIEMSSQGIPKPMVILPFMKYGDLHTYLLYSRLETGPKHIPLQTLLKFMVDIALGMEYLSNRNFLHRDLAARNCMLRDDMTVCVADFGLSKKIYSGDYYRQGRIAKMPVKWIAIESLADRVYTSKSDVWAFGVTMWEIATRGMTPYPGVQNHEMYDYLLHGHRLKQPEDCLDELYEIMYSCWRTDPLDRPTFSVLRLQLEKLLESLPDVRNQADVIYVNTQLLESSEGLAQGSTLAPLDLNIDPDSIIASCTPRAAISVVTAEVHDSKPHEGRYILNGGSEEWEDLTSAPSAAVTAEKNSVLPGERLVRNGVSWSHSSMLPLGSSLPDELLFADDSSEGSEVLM
# MST1 = target: T3, MST1 (Homo sapiens, UniProt Q13043); assay: Caliper kinase profiling: MST1
# T3 sequence (Q13043 1-487): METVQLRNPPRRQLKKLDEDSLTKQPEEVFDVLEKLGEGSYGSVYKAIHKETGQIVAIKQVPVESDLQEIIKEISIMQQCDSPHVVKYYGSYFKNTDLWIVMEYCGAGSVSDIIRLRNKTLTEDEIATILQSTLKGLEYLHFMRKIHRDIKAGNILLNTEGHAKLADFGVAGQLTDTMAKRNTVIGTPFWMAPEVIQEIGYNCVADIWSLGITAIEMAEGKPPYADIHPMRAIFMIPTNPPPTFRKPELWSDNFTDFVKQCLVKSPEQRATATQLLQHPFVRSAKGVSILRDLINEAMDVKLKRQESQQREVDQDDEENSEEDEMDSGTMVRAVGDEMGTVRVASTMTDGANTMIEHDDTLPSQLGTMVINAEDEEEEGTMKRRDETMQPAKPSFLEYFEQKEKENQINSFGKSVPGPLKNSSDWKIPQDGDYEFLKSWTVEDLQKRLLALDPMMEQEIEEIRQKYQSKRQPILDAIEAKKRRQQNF
# MET(M1250T) = MET(M1250T) (Homo sapiens, UniProt P08581, M1250T); assay: Caliper kinase profiling: MET(M1250T)
# Sequence of MET(M1250T) (P08581 25-1390 M1250T): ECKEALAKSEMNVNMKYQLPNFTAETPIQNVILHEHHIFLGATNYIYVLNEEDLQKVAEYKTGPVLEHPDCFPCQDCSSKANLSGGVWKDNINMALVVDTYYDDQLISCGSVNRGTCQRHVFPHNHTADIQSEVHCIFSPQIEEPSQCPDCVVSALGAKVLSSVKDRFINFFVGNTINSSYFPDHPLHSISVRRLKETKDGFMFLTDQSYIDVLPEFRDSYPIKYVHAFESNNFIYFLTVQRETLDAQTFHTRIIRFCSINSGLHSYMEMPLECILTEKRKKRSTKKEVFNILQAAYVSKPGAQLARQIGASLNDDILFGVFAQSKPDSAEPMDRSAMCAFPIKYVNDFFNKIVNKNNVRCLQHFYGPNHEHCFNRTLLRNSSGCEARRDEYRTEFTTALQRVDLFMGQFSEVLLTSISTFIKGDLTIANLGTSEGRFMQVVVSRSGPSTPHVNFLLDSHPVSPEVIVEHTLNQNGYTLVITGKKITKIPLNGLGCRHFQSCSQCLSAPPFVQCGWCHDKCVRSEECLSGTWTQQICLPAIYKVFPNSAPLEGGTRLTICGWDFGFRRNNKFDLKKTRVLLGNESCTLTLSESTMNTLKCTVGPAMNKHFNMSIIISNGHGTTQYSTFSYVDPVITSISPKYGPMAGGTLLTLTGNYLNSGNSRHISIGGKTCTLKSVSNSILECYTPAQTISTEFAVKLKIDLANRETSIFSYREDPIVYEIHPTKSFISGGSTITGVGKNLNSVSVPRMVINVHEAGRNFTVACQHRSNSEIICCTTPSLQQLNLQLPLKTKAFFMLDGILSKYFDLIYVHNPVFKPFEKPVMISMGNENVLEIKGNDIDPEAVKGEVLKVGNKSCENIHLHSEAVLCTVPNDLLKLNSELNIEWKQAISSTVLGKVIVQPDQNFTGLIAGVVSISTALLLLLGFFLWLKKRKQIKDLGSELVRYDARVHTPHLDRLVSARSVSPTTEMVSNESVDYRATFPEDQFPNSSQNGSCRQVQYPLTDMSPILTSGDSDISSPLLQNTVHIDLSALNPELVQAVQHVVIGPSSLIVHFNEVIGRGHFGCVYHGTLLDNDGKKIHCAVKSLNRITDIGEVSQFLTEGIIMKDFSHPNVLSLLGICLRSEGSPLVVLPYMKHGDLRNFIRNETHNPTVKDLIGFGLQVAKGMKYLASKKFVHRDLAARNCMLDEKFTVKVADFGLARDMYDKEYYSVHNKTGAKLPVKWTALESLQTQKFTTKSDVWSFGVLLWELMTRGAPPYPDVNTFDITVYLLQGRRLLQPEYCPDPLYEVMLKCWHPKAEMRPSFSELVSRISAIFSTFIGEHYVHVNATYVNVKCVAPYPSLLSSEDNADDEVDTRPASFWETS
# ABL = target: T4, ABL (Homo sapiens, UniProt P00519); assay: Caliper kinase profiling: ABL; conditions: read-out: Average % Inh @ 1 μM
# T4 construct: purchased Caliper LifeSciences (ProfilerPro Kinase Selectivity Assay Kits)
# T4 sequence (P00519 whole entry): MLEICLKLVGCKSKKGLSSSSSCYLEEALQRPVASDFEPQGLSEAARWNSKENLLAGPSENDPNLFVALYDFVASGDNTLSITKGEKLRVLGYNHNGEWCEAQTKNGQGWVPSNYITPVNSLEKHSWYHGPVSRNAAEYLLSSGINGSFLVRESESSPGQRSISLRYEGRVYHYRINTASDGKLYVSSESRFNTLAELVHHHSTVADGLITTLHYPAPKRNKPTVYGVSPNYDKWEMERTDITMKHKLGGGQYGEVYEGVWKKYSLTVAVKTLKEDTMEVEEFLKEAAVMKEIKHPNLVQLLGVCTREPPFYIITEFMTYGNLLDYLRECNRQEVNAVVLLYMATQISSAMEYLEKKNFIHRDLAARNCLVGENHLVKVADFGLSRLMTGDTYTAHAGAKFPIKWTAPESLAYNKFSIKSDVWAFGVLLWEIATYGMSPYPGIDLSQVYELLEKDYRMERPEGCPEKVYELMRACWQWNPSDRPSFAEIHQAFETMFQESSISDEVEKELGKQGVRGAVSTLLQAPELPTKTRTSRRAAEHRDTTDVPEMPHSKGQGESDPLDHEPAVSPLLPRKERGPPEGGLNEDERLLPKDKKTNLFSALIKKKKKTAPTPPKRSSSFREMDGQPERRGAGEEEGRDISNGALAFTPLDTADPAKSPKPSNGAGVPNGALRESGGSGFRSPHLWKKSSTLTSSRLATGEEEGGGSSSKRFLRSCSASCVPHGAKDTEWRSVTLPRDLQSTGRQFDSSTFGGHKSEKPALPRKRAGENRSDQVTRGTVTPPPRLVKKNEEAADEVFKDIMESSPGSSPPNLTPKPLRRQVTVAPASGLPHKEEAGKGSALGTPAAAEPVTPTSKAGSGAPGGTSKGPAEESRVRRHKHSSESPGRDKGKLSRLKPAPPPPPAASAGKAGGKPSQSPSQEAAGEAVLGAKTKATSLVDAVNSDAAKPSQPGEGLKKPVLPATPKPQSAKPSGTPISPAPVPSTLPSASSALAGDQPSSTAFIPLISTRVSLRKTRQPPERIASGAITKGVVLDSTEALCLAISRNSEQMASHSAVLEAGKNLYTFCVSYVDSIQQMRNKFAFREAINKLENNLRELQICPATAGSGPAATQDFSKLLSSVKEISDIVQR
# TYRO3 = target: T5, TYRO3 (Homo sapiens, UniProt Q06418); assay: Caliper kinase profiling: TYRO3
# T5 sequence (Q06418 41-890): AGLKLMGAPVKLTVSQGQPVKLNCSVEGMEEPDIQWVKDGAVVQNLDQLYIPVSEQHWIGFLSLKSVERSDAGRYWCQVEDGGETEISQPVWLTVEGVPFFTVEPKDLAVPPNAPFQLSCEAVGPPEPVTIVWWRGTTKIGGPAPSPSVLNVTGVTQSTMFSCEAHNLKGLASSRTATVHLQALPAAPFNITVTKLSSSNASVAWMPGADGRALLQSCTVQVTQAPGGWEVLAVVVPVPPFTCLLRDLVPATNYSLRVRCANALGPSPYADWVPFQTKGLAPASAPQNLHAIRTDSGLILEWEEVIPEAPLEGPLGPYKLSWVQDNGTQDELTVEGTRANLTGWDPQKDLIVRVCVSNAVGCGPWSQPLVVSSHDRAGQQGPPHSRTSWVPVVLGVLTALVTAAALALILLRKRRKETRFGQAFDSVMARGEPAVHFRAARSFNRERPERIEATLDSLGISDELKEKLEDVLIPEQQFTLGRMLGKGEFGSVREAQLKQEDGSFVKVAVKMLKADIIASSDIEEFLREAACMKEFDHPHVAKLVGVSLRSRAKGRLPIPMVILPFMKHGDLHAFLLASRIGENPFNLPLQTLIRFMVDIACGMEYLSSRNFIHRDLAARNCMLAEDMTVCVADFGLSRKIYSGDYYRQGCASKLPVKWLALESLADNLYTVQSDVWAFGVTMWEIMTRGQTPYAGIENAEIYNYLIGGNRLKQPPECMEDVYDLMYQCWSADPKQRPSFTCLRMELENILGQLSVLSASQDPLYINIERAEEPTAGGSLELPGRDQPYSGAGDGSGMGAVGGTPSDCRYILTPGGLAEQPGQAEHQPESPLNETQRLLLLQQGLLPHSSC
# FLT4 = FLT4 (Homo sapiens, UniProt P35916); assay: Caliper kinase profiling: FLT4; conditions: FLT4, 1 μM; read-out: Average % Inh @ 1 μM
# [1] = 1 nM, read-out: Average % Inh @ 1 nM
# [2] = 100 nM, read-out: Average % Inh @ 100 nM
# [3] = 1 μM, read-out: Average % Inh @ 1 μM
# T1 sequence (P06213 28-1382): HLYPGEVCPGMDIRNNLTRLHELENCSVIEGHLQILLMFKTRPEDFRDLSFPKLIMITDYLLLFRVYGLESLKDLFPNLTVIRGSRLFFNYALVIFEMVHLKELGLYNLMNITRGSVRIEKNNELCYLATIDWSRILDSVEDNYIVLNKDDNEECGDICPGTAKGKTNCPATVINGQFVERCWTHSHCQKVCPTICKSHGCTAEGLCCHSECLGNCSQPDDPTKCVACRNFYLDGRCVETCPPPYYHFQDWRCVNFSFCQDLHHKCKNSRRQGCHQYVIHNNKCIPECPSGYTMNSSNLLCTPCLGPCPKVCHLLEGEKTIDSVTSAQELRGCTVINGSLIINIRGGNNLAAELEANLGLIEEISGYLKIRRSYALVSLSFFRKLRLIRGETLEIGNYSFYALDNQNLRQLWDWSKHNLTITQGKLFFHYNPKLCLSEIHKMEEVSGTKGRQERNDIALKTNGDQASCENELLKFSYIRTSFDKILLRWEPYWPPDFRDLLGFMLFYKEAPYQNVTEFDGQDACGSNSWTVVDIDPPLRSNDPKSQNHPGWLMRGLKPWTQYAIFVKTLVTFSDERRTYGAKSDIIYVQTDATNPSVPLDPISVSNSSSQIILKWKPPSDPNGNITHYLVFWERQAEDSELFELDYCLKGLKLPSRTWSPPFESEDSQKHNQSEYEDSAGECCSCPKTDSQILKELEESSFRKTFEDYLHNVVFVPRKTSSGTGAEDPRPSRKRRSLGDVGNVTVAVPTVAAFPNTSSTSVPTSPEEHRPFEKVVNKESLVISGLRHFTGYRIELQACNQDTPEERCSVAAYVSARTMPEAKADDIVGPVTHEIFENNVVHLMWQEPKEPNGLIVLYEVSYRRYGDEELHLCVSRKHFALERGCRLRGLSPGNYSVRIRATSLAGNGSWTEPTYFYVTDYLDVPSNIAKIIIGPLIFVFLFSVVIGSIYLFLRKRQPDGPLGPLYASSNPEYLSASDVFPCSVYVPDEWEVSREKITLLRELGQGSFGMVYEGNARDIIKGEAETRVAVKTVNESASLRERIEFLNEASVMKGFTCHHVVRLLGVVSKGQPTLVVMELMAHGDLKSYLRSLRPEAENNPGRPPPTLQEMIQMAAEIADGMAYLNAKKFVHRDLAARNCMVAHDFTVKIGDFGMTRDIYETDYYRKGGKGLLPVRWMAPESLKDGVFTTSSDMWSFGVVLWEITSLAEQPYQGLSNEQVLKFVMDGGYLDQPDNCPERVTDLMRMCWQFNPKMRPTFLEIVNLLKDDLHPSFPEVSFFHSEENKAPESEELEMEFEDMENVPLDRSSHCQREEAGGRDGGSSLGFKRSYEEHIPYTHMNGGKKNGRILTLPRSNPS
SMILES,inhibition at 0.001 µM (INSR; [1]) [%],inhibition at 0.01 µM (INSR) [%],inhibition at 0.001 µM (Mer; [1]) [%],inhibition at 0.01 µM (Mer) [%],IC50 (Mer; 8 concentrations 3.0×10^−7 to 1.0×10^−10 M) [nM],"inhibition at 0.01 µM (MST1; MST1, 10 nM, read-out: Average % Inh @ 10 nM) [%]","inhibition at 0.1 µM (MST1; MST1, 100 nM, read-out: Average % Inh @ 100 nM) [%]","inhibition at 1 µM (MST1; MST1, 1 μM, read-out: Average % Inh @ 1 μM) [%]",inhibition at 0.1 µM (INSR; [2]) [%],inhibition at 1 µM (INSR; [3]) [%],"inhibition at 0.01 µM (MET(M1250T); MET M1250T, 10 nM, read-out: Average % Inh @ 10 nM) [%]","inhibition at 0.1 µM (MET(M1250T); MET M1250T, 100 nM, read-out: Average % Inh @ 100 nM) [%]","inhibition at 1 µM (MET(M1250T); MET(M1250T), 1 μM, read-out: Average % Inh @ 1 μM) [%]",inhibition at 0.1 µM (Mer; [2]) [%],inhibition at 1 µM (Mer; [3]) [%],inhibition at 1 µM (ABL) [%],"inhibition at 0.01 µM (TYRO3; TYRO3, 10 nM, read-out: Average % Inh @ 10 nM) [%]","inhibition at 0.1 µM (TYRO3; TYRO3, 100 nM, read-out: Average % Inh @ 100 nM) [%]","inhibition at 1 µM (TYRO3; TYRO3, 1 μM, read-out: Average % Inh @ 1 μM) [%]",inhibition at 1 µM (FLT4) [%]
"CC(C)c1cc(Nc2nc(N3CCCC3C(=O)Nc3ccc(F)nc3)nc3c2CCC3)n[nH]1 (single isomer, unassigned) [Compound 8b]",40 to 59,> 60,< 39,> 60,3.84,–,–,–,–,–,–,–,–,–,–,–,–,–,–,–
"O=C(Nc1ccc(F)nc1)C1CCCN1c1nc2c(c(Nc3cc(C4CC4)[nH]n3)n1)CCC2 (single isomer, unassigned) [Compound 2b, 1-(4-(5-cyclopropyl-1H-pyrazol-3-ylamino)-6,7-dihydro-5H-cyclopenta[d]pyrimidin-2-yl)-N-(6-fluoropyridin-3-yl)pyrrolidine-2-carboxamide]",–,< 39,–,40 to 59,–,< 39,40 to 59,> 60,> 60,> 60,< 39,< 39,> 60,> 60,> 60,40 to 59,< 39,< 39,> 60,40 to 59
